This note sets out measurements from patent publication US9902725B2, “Heterocyclic derivatives as RORgamma modulators” (GENFIT, priority 2014, dated 2018).

The target of assay [1] is T1, RORγt ligand-binding domain (RORγt-LBD) (Homo sapiens, UniProt P51449).
T1 construct: 20 nM recombinantly expressed RORγ-LBD fused to GST
T1 sequence (P51449 269-508 limits assumed): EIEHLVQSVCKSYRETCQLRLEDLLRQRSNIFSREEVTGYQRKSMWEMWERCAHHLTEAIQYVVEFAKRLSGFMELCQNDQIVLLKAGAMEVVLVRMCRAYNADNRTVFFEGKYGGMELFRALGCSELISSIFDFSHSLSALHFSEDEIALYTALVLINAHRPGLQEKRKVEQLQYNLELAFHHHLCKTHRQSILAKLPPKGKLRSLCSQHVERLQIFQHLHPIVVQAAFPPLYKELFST
The assay can be described thus: Time-resolved FRET (TR-FRET) RORγt coactivator assay. Type of assay: biochemical. Particulars: GST-RORγ-LBD, biotinylated RIP140 peptide, coactivator displacement.

The target of a further assay is T2, human RORγt (Homo sapiens, UniProt P51449).
T2 sequence (P51449 1-497 isoform P51449-2): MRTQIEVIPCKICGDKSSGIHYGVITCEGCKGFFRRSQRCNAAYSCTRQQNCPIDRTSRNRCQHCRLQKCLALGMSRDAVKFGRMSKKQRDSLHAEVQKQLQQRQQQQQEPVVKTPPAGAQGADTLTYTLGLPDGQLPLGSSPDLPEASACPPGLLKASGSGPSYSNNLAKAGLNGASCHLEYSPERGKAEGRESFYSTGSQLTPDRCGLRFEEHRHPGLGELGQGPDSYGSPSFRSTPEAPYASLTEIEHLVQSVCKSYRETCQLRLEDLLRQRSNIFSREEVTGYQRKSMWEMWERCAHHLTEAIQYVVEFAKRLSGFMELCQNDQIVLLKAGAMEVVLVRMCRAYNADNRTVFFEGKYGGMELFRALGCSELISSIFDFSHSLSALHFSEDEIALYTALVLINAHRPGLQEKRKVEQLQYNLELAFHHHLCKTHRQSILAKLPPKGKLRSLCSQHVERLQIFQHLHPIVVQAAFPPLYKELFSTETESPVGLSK
Put plainly: IL-17 secretion from EL4 murine lymphoma overexpressing human RORγt. Type of assay: cell-based. The arrangement: expressed in transfected cells; host or cells: EL-4 murine lymphoma. Particulars: IL-17 secretion inhibition, PMA and ionomycin stimulation, 24 h. As for the experimental part:
Murine EL-4 lymphoma cell line overexpressing human RORγt was used in this functional assay to assess compound ability to inhibit IL-17 cytokine secretion.
EL-4 cells are maintained in a standard culture medium RPMI supplemented with 10% fetal calf serum, 1% sodium pyruvate, 1% essential amino acids and 1% antibiotics at 37° C. in a humidified atmosphere of 5% CO2 and 95% air. Culture medium was changed every 2 days. EL4 cells were transfected with a plasmid encoding hRORγt (sequence identical to published sequence NM 001001523). […] Briefly, 1 μg of DNA/1 million cells was served to transfect EL-4 cells. Cell/DNA suspension was transferred into certified cuvette and the electroporation of RORγt plasmid was carried out using appropriate Nucleofector® program.
Cells were seeded in 96 well plates at a density of 150000 cells/well then treated with compounds of this invention at indicated concentrations and incubated for 24 hours at 37° C. in a humidified atmosphere of 5% CO2 and 95% air. EL-4 cells were pretreated with test compounds (RORγ modulators) and stimulated with PMA (10 ng/mL) and ionomycin (1 μM final concentration) in the presence of test compound concentrations for additional 24 h at 37° C. in a humidified atmosphere of 5% CO2 and 95% air. Subsequently, supernatants were collected (after centrifugation at 300 g for 10 minutes) to determine the concentrations of IL-17 by HTRF (CisBio, France) or ELISA (R&D Systems Europe) according to the manufacturer's protocols.

The structures appear in SMILES notation.

`Cc1ccc(C(NC(=O)Cc2ccc3[nH]cc(CCC(=O)O)c3c2)c2ccccc2)c(OC(C)C)c1` (centres unmarked) [compound 146, 3-{5-[({[4-methyl-2-(propan-2-yloxy)phenyl](phenyl)methyl}carbamoyl)methyl]-1H-indol-3-yl}propanoic acid]: the IC50 (usually the midpoint of a concentration-inhibition curve) in assay [1] was below 1 µM; against human RORγt, 1 to 10 µM.
Consider `Cc1ccc(C(NC(=O)Cc2ccc3[nH]cc(CCC(=O)O)c3c2)c2ccccc2N2CCCCC2)o1` (centres unmarked) [compound 148, 3-[5-({[(5-methylfuran-2-yl)[2-(piperidin-1-yl)phenyl]methyl]carbamoyl}methyl)-1H-indol-3-yl]propanoic acid], for which the IC50 in assay [1] is below 1 µM; on human RORγt, 1 to 10 µM.
With `CCOc1ccc(C(NC(=O)Cc2ccc3[nH]cc(CCC(=O)O)c3c2)c2ccccc2)c(N2CCCCC2)c1` (centres unmarked) [compound 150, 3-{5-[({[4-ethoxy-2-(piperidin-1-yl)phenyl](phenyl)methyl}carbamoyl)methyl]-1H-indol-3-yl}propanoic acid], the IC50 is below 1 µM in assay [1] and 1 to 10 µM on human RORγt.
`CC(C)Oc1ccc(C(NC(=O)Cc2ccc3[nH]cc(CCC(=O)O)c3c2)c2ccccc2)c(N2CCCCC2)c1` (centres unmarked) [compound 152, 3-{5-[({phenyl[2-(piperidin-1-yl)-4-(propan-2-yloxy)phenyl]methyl}carbamoyl)methyl]-1H-indol-3-yl}propanoic acid]: the IC50 in assay [1] is below 1 µM; on human RORγt, 10 to 30 µM.
As for `Cc1cccc(C(NC(=O)Cc2ccc3[nH]cc(CCC(=O)O)c3c2)c2ccccc2N2CCCCC2)c1` (centres unmarked) [compound 158, 3-[5-({[(3-methylphenyl)[2-(piperidin-1-yl)phenyl]methyl]carbamoyl}methyl)-1H-indol-3-yl]propanoic acid], the values for the concentration for half-maximal inhibition (IC50) (in assay [1]; on human RORγt) were below 1 µM and 1 to 10 µM, respectively.
On to `Cc1ccc(C(NC(=O)Cc2ccc3[nH]nc(CCC(=O)O)c3c2)c2ccccc2)c(OC(C)C)c1` (centres unmarked) [compound 160, 3-{5-[({[4-methyl-2-(propan-2-yloxy)phenyl](phenyl)methyl}carbamoyl)methyl]-1H-indazol-3-yl}propanoic acid], for which the figures for the IC50 (in assay [1]; on human RORγt) were below 1 µM and 10 to 30 µM, respectively.
In the case of `O=C(O)CCc1c[nH]c2ccc(CC(=O)NC(CC3CCCCC3)c3ccccc3N3CCCCC3)cc12` (centres unmarked) [compound 162, 3-{5-[({2-cyclohexyl-1-[2-(piperidin-1-yl)phenyl]ethyl}carbamoyl)methyl]-1H-indol-3-yl}propanoic acid], the IC50 (in assay [1]; against human RORγt) was 1 to 10 µM in each case.
Regarding `CCN(CC)c1ccccc1C(CC(C)C)NC(=O)Cc1ccc2[nH]cc(CCC(=O)O)c2c1` (centres unmarked) [compound 174, 3-{5-[({1-[2-(diethylamino)phenyl]-3-methylbutyl}carbamoyl)methyl]-1H-indol-3-yl}propanoic acid], the IC50 (in assay [1]; against human RORγt) was 1 to 10 µM each time.
As for `CC(C)(C)CC(NC(=O)Cc1ccc2[nH]cc(CCC(=O)O)c2c1)c1ccccc1N1CCCCC1` (centres unmarked) [compound 186, 3-{5-[({3,3-dimethyl-1-[2-(piperidin-1-yl)phenyl]butyl}carbamoyl)methyl]-1H-indol-3-yl}propanoic acid], the IC50 is below 1 µM in assay [1] and 1 to 10 µM at human RORγt.
In the case of `Cc1ccc(C(NC(=O)Cc2ccc3[nH]cc(CCC(=O)O)c3c2)c2ccccc2N2CCCCC2)cc1` (centres unmarked) [compound 188, 3-[5-({[(4-methylphenyl)[2-(piperidin-1-yl)phenyl]methyl]carbamoyl}methyl)-1H-indol-3-yl]propanoic acid], the IC50 is below 1 µM in assay [1] and 10 to 30 µM against human RORγt.
Turning to `CC(C)CC(NC(=O)Cc1ccc2[nH]cc(CCC(=O)O)c2c1)c1ccccc1N1CCCCCC1` (centres unmarked) [compound 198, 3-{5-[({1-[2-(azepan-1-yl)phenyl]-3-methylbutyl}carbamoyl)methyl]-1H-indol-3-yl}propanoic acid], the IC50 in assay [1] is below 1 µM; against human RORγt, 1 to 10 µM.
The like results for `Cc1ccc(C(NC(=O)Cc2ccc3[nH]cc(CCC(=O)O)c3c2)c2ccccc2)c(N2CC=CC2)c1` (centres unmarked) [compound 200, 3-{5-[({[2-(2,5-dihydro-1H-pyrrol-1-yl)-4-methylphenyl](phenyl)methyl}carbamoyl)methyl]-1H-indol-3-yl}propanoic acid] were, in that order, below 1 µM and 1 to 10 µM.
The like results for `Cc1cccc(C(NC(=O)Cc2ccc3[nH]cc(CCC(=O)O)c3c2)c2ccccc2)c1N1CCCCC1` (centres unmarked) [compound 202, 3-{5-[({[3-methyl-2-(piperidin-1-yl)phenyl](phenyl)methyl}carbamoyl)methyl]-1H-indol-3-yl}propanoic acid] were, in that order, below 1 µM and 1 to 10 µM.
The like results for `Cc1ccc(C(C(=O)NCc2ccc3[nH]cc(CCC(=O)O)c3c2)c2ccccc2)c(N2CCCCC2)c1` (centres unmarked) [compound 209, 3-[5-({2-[4-methyl-2-(piperidin-1-yl)phenyl]-2-phenylacetamido}methyl)-1H-indol-3-yl]propanoic acid] were, in that order, below 1 µM and 1 to 10 µM.
On to `O=C(O)CCCCc1c[nH]c2ccc(CC(=O)NC(c3ccccc3)c3ccccc3N3CCCCC3)cc12` (centres unmarked) [compound 217, 5-{5-[({phenyl[2-(piperidin-1-yl)phenyl]methyl}carbamoyl)methyl]-1H-indol-3-yl}pentanoic acid], for which the IC50 in assay [1] was below 1 µM; against human RORγt it was 1 to 10 µM.
`CC(C)(C)OC(=O)CCc1c[nH]c2ccc(CC(=O)NC(c3ccccc3)c3ccc(O)cc3N3CCCCC3)cc12` (centres unmarked) [compound 264, tert-butyl 3-{5-[({[4-hydroxy-2-(piperidin-1-yl)phenyl](phenyl)methyl}carbamoyl)methyl]-1H-indol-3-yl}propanoate]: the IC50 (in assay [1]; on human RORγt) was 1 to 10 µM each time.
